Laboratory results reported in patent publication US6844358B2, “Phenyl oxo-acetic acids useful in the treatment of insulin resistance and hyperglycemia” (Wyeth, priority 1998, dated 2005).
Read-outs that look alike come from different tables or passages of the source.

Key:
[1] = tested on: diabetic (ob/ob) mice; assay: Blood glucose lowering activity in diabetic (ob/ob) mice; type: in vivo; settings: Mus musculus, po
Description: The procedures used and results obtained are briefly described below. […]
In each test procedure, mice [Male or female ob/ob (C57 B1/6J) and their lean litermates (ob/+ or +/+, Jackson Laboratories) ages 2 to 5 months (10 to 65 g)] of a similar age were randomized according to body weight into 4 groups of 10 mice. The mice were housed 5 per cage and are maintained on normal rodent chow with water ad libitum. Mice received test compound daily by gavage (suspended in 0.5 ml of 0.5% methyl cellulose); dissolved in the drinking water; or admixed in the diet. The dose of compounds given ranges from 2.5 to 200 mg/kg body weight/day. The dose is calculated based on the fed weekly body weight and is expressed as active moiety. […] Control mice received vehicle only.
On the morning of Day 4, 7 or 14 two drops of blood (approximetly 50 ul) were collected into sodium fluoride containing tubes either from the tail vein or after decapitation. For those studies in which the compound was administered daily by gavage the blood samples were collected two hours after compound administration. […]
Analysis of variance followed by Dunett's Comparison Test (one-tailed) are used to estimate the significant difference between the plasma glucose values from the control group and the individual compound treated groups (CMS SAS Release 5.18).

[2] = biological target: rat hepatic microsomal PTPases; settings: rat hepatic microsomal PTPase; for IC50: dodecaphosphopeptide substrate 50 uM
[3] = biological target: T1, recombinant rat protein tyrosine phosphatase, PTP1B (rPTP1B) (Rattus norvegicus, UniProt P20417); type: biochemical; settings: rPTP1B
T1 sequence (P20417 1-432): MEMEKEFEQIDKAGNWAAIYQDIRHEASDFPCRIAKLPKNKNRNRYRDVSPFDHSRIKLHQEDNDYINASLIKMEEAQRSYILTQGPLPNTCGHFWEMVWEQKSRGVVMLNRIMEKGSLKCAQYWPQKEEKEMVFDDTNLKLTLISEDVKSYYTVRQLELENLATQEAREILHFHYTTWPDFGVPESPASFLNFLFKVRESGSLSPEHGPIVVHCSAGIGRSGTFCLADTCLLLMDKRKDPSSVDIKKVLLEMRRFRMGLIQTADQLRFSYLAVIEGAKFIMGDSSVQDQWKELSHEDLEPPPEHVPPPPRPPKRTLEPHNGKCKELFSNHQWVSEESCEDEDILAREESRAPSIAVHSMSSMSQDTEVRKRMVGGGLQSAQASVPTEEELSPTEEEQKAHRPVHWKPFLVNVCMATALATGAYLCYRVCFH

[4] = biological target: T2, Human recombinant PTP1B (hPTP1B) (Homo sapiens, UniProt P18031); type: biochemical; settings: hPTP1B
T2 construct: made in house
T2 sequence (P18031 1-435): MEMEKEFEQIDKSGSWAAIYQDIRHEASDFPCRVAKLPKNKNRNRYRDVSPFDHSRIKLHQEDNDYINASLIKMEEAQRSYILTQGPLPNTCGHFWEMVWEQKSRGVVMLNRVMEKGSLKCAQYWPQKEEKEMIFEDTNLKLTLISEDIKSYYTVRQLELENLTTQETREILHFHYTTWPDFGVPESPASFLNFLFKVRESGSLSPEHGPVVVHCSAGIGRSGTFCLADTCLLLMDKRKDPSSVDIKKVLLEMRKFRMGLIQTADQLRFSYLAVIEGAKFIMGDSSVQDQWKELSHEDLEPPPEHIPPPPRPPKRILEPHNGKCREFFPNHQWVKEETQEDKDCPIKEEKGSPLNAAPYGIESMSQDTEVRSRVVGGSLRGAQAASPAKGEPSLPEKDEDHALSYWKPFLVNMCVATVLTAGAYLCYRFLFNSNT

[5] = tested on: Human recombinant PTP1B (hPTP1B); type: biochemical
[6] = 96 h, plasma glucose on Day 4, 7 or 14, suffix a = no significant activity at this dose, read-out: % Change Glucose from Vehicle
[7] = suffix a = no significant activity at this dose, read-out: % Change Insulin from Vehicle

CCCCc1oc2ccccc2c1Cc1cc(Br)c(OCC(=O)O)c(Br)c1 [Example 7]
change in vivo at 100 mg/kg [1, 6]: -29.4% | change in vivo at 100 mg/kg [1, 7]: -13.1% | IC50 [2]: 22700 nM | % change from control at 10 μM ([3]; 10 μM compound): −99 (rPTP1B) % | melting point: 118 to 119 °C | IC50 [4]: 1400 nM

O=C(c1cc(Br)c(O)c(Br)c1)c1c(Cc2ccccc2)sc2ccccc12 [Example 11, (2-Benzyl-benzo[b]thiophen-3-yl)-(3,5-dibromo-4-hydroxy-phenyl)-methanone]
change in vivo at 100 mg/kg [1, 6]: -30.3% | change in vivo at 100 mg/kg [1, 7]: -53.2% | IC50 [2]: 33900 nM | IC50 ([3]; read-out: IC50): 3970 nM | melting point: 155.5 to 156.5 °C | IC50 [4]: 1940 nM

CCCCc1oc2ccccc2c1Cc1cc(Br)c(O[C@H](Cc2ccccc2)C(=O)O)c(Br)c1 [Example 23, (R)-2-[2,6-dibromo-4-(2-butyl-benzofuran-3-ylmethyl)-phenoxy]-3-phenyl-propionic acid]
% Change from Control at 50 μM ([2]; 50 μM compound): −85% | melting point: 225 to 226 °C | IC50 [4]: 870 nM

[Na+].[Na+].[Na+].[O]=[V]([O-])([O-])[O-] [Sodium orthovanadate, reference compound]
% change from control at 10 μM [5]: 244.8%

Ammonium molybdate tetrahydrate [reference compound]
% change from control at 10 μM ([5]; reference standards, enzyme form (rPTP1B/hPTP1B) not given): 8.7%
